Assay results published in paper PMC10386649, “New Acetamide-Sulfonamide-Containing Scaffolds: Antiurease Activity Screening, Structure-Activity Relationship, Kinetics Mechanism, Molecular Docking, and MD Simulation Studies” (Molecules, 2023).
Like-named read-outs stand apart in the source and are kept apart here.

Experiments:
[1] = biological target: jack bean urease (Canavalia ensiformis, UniProt P07374); assay: biochemical; assay type: biochemical; conditions: for % Inhibition (urease): value in parentheses beside IC50; for urease inhibition (in words): qualitative statement
Chain of jack bean urease (P07374 whole entry, looked up): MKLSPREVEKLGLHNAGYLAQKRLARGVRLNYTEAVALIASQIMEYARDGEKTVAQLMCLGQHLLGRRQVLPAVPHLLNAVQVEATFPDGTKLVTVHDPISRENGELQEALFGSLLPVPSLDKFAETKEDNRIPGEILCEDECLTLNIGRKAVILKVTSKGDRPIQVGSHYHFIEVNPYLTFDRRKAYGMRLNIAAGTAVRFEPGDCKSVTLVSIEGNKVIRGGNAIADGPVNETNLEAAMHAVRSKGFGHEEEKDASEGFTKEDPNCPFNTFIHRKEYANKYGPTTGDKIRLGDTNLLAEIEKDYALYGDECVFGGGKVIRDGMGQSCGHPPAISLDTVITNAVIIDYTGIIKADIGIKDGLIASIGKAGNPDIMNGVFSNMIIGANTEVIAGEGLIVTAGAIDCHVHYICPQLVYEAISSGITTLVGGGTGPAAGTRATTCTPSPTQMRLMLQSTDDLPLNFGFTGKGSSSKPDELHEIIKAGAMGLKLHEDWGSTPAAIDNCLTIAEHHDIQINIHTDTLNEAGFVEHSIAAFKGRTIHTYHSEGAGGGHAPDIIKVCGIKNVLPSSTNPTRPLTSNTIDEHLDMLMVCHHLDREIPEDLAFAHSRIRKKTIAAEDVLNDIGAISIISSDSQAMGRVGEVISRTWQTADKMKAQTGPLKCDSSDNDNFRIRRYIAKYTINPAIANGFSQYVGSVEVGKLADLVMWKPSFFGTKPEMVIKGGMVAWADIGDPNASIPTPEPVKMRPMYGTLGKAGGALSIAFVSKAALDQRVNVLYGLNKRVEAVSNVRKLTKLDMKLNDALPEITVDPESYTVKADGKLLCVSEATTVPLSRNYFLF
Protocol: Briefly, DMSO was used to dissolve the synthesized conjugates (inhibitors, 250–0.49 µM) and the reference urease inhibitor (thiourea). Each falcon tube contained the respective inhibitor (20 µL), buffer (K2HPO4, 100 µL, 50 mM, pH = 6.8), and jack bean urease (20 µL); each tube was mixed well; and the mixtures were incubated for 30 min at 37 °C. Each tube received 400 µL of urea (20 mM) as a substrate, which was then incubated for 10 min at the same temperature. Afterward, each tube received 400 µL of phenol reagent and 750 µL of alkali reagent containing 0.1% active chlorine and was left at 37 °C for 50 min. Following the use of a spectrophotometer (Labdex, LX210DS, London, UK) to measure absorbance of the mixture in each tube at 595 nm, Equation (1) below was used to compute the percentage of urease inhibition: (1) % Urease inhibition=1−T/C×100 where, T and C are the absorbance of each well containing inhibitor and blank, respectively. The results are presented as mean ± SEM. Using a regression equation where 50% inhibition was seen, the IC50 values of each inhibitor were determined.

[2] = biological target: urease (Canavalia ensiformis, UniProt P07374); assay: biochemical; assay type: biochemical, jack bean; conditions: for Mode of Inhibition: Lineweaver–Burk plot, inhibitor 0–20 µM, urea 0.5–4.0 mM; for Vmax (app): intercept, the maximum rate at 20 µM of inhibitor concentration
Chain of urease (P07374 whole entry, looked up): as above
Protocol: The kinetics studies were performed by using five different concentrations (0.0, 5.0, 10.0, 15.0, and 20.0 µM) of each conjugate while using four different concentrations of urea (0.5, 1.0, 2.0, and 4.0) as substrate.
The Lineweaver–Burk plot is a powerful tool for analyzing enzyme kinetics and determining the mode of inhibition of an enzyme by a particular conjugate. […] In a Lineweaver–Burk plot, competitive inhibition is characterized by a change in the slope of the line (Km, also called the Michaelis constant), whereas the intercept remains the same (Vmax, the maximum rate). […] The inhibition constant (Ki) value of each conjugate was also calculated by plotting the slope of each line vs. different concentrations of each conjugate, also called secondary Lineweaver–Burk plots.
When there is mixed-type inhibition, the enzyme–substrate complex is bound by the inhibitor molecule, which prevents the reaction from happening, and increasing the substrate concentration will not remove this kind of inhibition. In a Lineweaver–Burk plot, mixed-type inhibition is characterized by a change in both the slope (Km) and the intercept of the line (Vmax).
With a few minor modifications, the urease inhibition experiment was carried out as described in our past research [3, 4, 5]. Briefly, DMSO was used to dissolve the synthesized conjugates (inhibitors, 250–0.49 µM) and the reference urease inhibitor (thiourea). Each falcon tube contained the respective inhibitor (20 µL), buffer (K2HPO4, 100 µL, 50 mM, pH = 6.8), and jack bean urease (20 µL); each tube was mixed well; and the mixtures were incubated for 30 min at 37 °C. Each tube received 400 µL of urea (20 mM) as a substrate, which was then incubated for 10 min at the same temperature. Afterward, each tube received 400 µL of phenol reagent and 750 µL of alkali reagent containing 0.1% active chlorine and was left at 37 °C for 50 min. Following the use of a spectrophotometer (Labdex, LX210DS, London, UK) to measure absorbance of the mixture in each tube at 595 nm, Equation (1) below was used to compute the percentage of urease inhibition: (1) % Urease inhibition=1−T/C×100 where, T and C are the absorbance of each well containing inhibitor and blank, respectively. The results are presented as mean ± SEM. Using a regression equation where 50% inhibition was seen, the IC50 values of each inhibitor were determined. Each inhibitor’s binding mechanism was tested at various doses (0–20 µM) for kinetics investigations. Urea was used as a substrate in different concentrations (0.5–4.0 mM) to determine the mode of inhibition of the inhibitors, including whether they acted as uncompetitive, mixed (non-competitive), or competitive. GraphPad PRISM 7.0 was used to create Lineweaver–Burk plots, which were then used to calculate the values of Km (app), Vmax (app), and Ki (inhibition constant).

Cc1cc(NS(=O)(=O)c2ccc(NC(=O)C(C)c3ccc(CC(C)C)cc3)cc2)no1 (stereo not drawn) [Conjugate 9, 2-(4-Isobutylphenyl)-N-(4-(N-(5-methylisoxazol-3-yl)sulfamoyl)phenyl)propanamide]
IC50 [1]: 39.9 ± 1.17 µM | % Inhibition (urease) ([1]; jack bean urease): 76.7% | urease inhibition (in words) [1]: moderate inhibition

CC(C(=O)Nc1ccc(S(=O)(=O)NC(=N)N)cc1)c1ccc(-c2ccccc2)c(F)c1 (stereo not drawn) [Conjugate 19, N-(4-(N-Carbamimidoylsulfamoyl)phenyl)-2-(2-fluoro-[1,1′-biphenyl]-4-yl)propanamide]
IC50 [1]: 33.83 ± 0.18 µM | % Inhibition (urease) ([1]; jack bean urease): 83.8% | melting point: 163 to 165 °C

Cc1noc(NS(=O)(=O)c2ccc(NC(=O)C(C)c3ccc(-c4ccccc4)c(F)c3)cc2)c1C (stereo not drawn) [Conjugate 13, N-(4-(N-(3,4-Dimethylisoxazol-5-yl)sulfamoyl)phenyl)-2-(2-fluoro-[1,1′-biphenyl]-4-yl)propanamide]
IC50 [1]: 35.3 ± 0.21 µM | % Inhibition (urease) ([1]; jack bean urease): 84.6% | melting point: 128 to 130 °C

CC(C)Cc1ccc(C(C)C(=O)Nc2ccc(S(=O)(=O)Nc3nccs3)cc2)cc1 (stereo not drawn) [Conjugate 6, 2-(4-Isobutylphenyl)-N-(4-(N-(thiazol-2-yl)sulfamoyl)phenyl)propanamide]
Ki [2]: 0.17 µM | Mode of Inhibition [2]: Competitive | Vmax (app) [2]: 1.39 µM/min | IC50 [1]: 9.95 ± 0.14 µM | % Inhibition (urease) ([1]; jack bean urease): 90.6% | melting point: 184 to 185 °C

CC(C)Cc1ccc(C(C)C(=O)Nc2ccc(S(=O)(=O)NC(=N)N)cc2)cc1 (stereo not drawn) [Conjugate 11, N-(4-(N-Carbamimidoylsulfamoyl)phenyl)-2-(4-isobutylphenyl)propanamide]
IC50 [1]: 44.5 ± 1.41 µM | % Inhibition (urease) ([1]; jack bean urease): 78.7% | urease inhibition (in words) [1]: moderate inhibition | melting point: 138 to 139 °C

CC(=O)NS(=O)(=O)c1ccc(NC(=O)C(C)c2ccc(CC(C)C)cc2)cc1 (stereo not drawn) [Conjugate 10, N-(4-(N-Acetylsulfamoyl)phenyl)-2-(4-isobutylphenyl)propanamide]
Ki [2]: 2.62 µM | Mode of Inhibition [2]: Mixed | Vmax (app) [2]: 1.04 µM/min | IC50 [1]: 10.3 ± 0.11 µM | % Inhibition (urease) ([1]; jack bean urease): 88.9% | melting point: 152 to 155 °C

CC(C)Cc1ccc(C(C)C(=O)Nc2ccc(S(N)(=O)=O)cc2)cc1 (stereo not drawn) [Conjugate 4, 2-(4-Isobutylphenyl)-N-(4-sulfamoylphenyl)propanamide]
Ki [2]: 8.2 µM | Mode of Inhibition [2]: Mixed | Vmax (app) [2]: 3.64 µM/min | IC50 [1]: 14.26 ± 0.14 µM | % Inhibition (urease) ([1]; jack bean urease): 84.2% | melting point: 147 to 150 °C

CC(C(=O)Nc1ccc(S(=O)(=O)Nc2nccs2)cc1)c1ccc(-c2ccccc2)c(F)c1 (stereo not drawn) [Conjugate 14, 2-(2-Fluoro-[1,1′-biphenyl]-4-yl)-N-(4-(N-(thiazol-2-yl)sulfamoyl)phenyl)propanamide]
IC50 [1]: 63.4 ± 1.15 µM | % Inhibition (urease) ([1]; jack bean urease): 60.4% | urease inhibition (in words) [1]: moderate inhibition | melting point: 137 to 140 °C

Cc1noc(NS(=O)(=O)c2ccc(NC(=O)C(C)c3ccc(CC(C)C)cc3)cc2)c1C (stereo not drawn) [Conjugate 5, N-(4-(N-(3,4-Dimethylisoxazol-5-yl)sulfamoyl)phenyl)-2-(4-isobutylphenyl)propanamide]
IC50 [1]: 23.3 ± 0.41 µM | % Inhibition (urease) ([1]; jack bean urease): 84.0%

Cc1ccnc(NS(=O)(=O)c2ccc(NC(=O)C(C)c3ccc(-c4ccccc4)c(F)c3)cc2)n1 (stereo not drawn) [Conjugate 16, 2-(2-Fluoro-[1,1′-biphenyl]-4-yl)-N-(4-(N-(4-methylpyrimidin-2-yl)sulfamoyl)phenyl)propanamide]
Ki [2]: 1.3 µM | Mode of Inhibition [2]: Mixed | Vmax (app) [2]: 1.01 µM/min | IC50 [1]: 17.5 ± 0.76 µM | % Inhibition (urease) ([1]; jack bean urease): 86.1%

Cc1ccnc(NS(=O)(=O)c2ccc(NC(=O)C(C)c3ccc(CC(C)C)cc3)cc2)n1 (stereo not drawn) [Conjugate 8, 2-(4-Isobutylphenyl)-N-(4-(N-(4-methylpyrimidin-2yl)sulfamoyl)phenyl)propanamide]
Ki [2]: 3.01 µM | Mode of Inhibition [2]: Mixed | Vmax (app) [2]: 3.0 µM/min | IC50 [1]: 12.4 ± 0.54 µM | % Inhibition (urease) ([1]; jack bean urease): 87.7% | melting point: 152 to 154 °C

CC(=O)NS(=O)(=O)c1ccc(NC(=O)C(C)c2ccc(-c3ccccc3)c(F)c2)cc1 (stereo not drawn) [Conjugate 18, N-(4-(N-Acetylsulfamoyl)phenyl)-2-(2-fluoro-[1,1′-biphenyl]-4-yl)propanamide]
Ki [2]: 4.11 µM | Mode of Inhibition [2]: Mixed | Vmax (app) [2]: 1.02 µM/min | IC50 [1]: 14.8 ± 0.16 µM | % Inhibition (urease) ([1]; jack bean urease): 87.1% | melting point: 187 to 190 °C

Cc1cc(NS(=O)(=O)c2ccc(NC(=O)C(C)c3ccc(-c4ccccc4)c(F)c3)cc2)no1 (stereo not drawn) [Conjugate 17, 2-(2-Fluoro-[1,1′-biphenyl]-4-yl)-N-(4-(N-(5-methylisoxazol-3-yl)sulfamoyl)phenyl)propanamide]
Ki [2]: 10.4 µM | Mode of Inhibition [2]: Competitive | Vmax (app) [2]: 1.56 µM/min | IC50 [1]: 13.39 ± 0.11 µM | % Inhibition (urease) ([1]; jack bean urease): 86.1%

CC(C)Cc1ccc(C(C)C(=O)Nc2ccc(S(=O)(=O)Nc3ncccn3)cc2)cc1 (stereo not drawn) [Conjugate 7, 2-(4-Isobutylphenyl)-N-(4-(N-(pyrimidin-2-yl)sulfamoyl)phenyl)propanamide]
IC50 [1]: 50.2 ± 1.24 µM | % Inhibition (urease) ([1]; jack bean urease): 71.6% | urease inhibition (in words) [1]: moderate inhibition | melting point: 171 to 173 °C

NC(N)=S [Thiourea, reference compound]
Mode of Inhibition [2]: Competitive | Ki ([2]; from secondary Lineweaver–Burk plots, read-out: Ki (inhibition constant)): 18.2 µM | Vmax (app) [2]: 18.61 µM/min | Km ([2]; slope of the line (Michaelis constant) at 20 µM of inhibitor concentration, read-out: Km (app)): 2180 µM | IC50 ([1]; jack bean urease, urea substrate, pH 6.8, 37 °C, mean ± SEM, read-out: IC50 (µM), Mean ± SEM): 22.6 ± 0.23 µM | % Inhibition (urease) ([1]; jack bean urease): 92.3%

CC(C(=O)Nc1ccc(S(=O)(=O)Nc2ncccn2)cc1)c1ccc(-c2ccccc2)c(F)c1 (stereo not drawn) [Conjugate 15, 2-(2-Fluoro-[1,1′-biphenyl]-4-yl)-N-(4-(N-(pyrimidin-2-yl)sulfamoyl)phenyl)propanamide]
Ki [2]: 7.95 µM | Mode of Inhibition [2]: Competitive | Vmax (app) [2]: 1.89 µM/min | IC50 [1]: 16.7 ± 0.23 µM | % Inhibition (urease) ([1]; jack bean urease): 84.1% | melting point: 155 to 158 °C

CC(C(=O)Nc1ccc(S(N)(=O)=O)cc1)c1ccc(-c2ccccc2)c(F)c1 (stereo not drawn) [Conjugate 12, 2-(2-Fluoro-[1,1′-biphenyl]-4-yl)-N-(4-sulfamoylphenyl)propanamide]
IC50 [1]: 24.92 ± 0.24 µM | % Inhibition (urease) ([1]; jack bean urease): 82.1% | melting point: 147 to 150 °C
